Test results as given in patent US11071730B2, “Substituted 6-azabenzimidazole compounds” (Gilead Sciences, Inc., priority 2018, dated 2021).

Biological target: human HPK1 (MAP4K1) (Homo sapiens (Human), UniProt Q92918)
Assay: HPK1 IC50 Assay (TR-FRET biochemical kinase assay, STK S1 peptide substrate)
Settings: recombinant human HPK1 kinase domain 0.15 nM, 10 μM ATP, 1 μM STK S1 peptide; geometric mean
Procedure, shortened: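 Pre-activated recombinant kinase domain (insect cells; 0.15 nM) pre-incubated with compounds for 15 min, then 10 μM ATP and 1 μM STK S1 peptide added for 3 h at 25 °C in BES pH 7.0. Phosphorylation read by HTRF (665/620 nm). IC50 from four-parameter fits normalized to staurosporine/DMSO controls, geometric mean of repeats.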

Chain of human HPK1 (MAP4K1) (Q92918 17-274): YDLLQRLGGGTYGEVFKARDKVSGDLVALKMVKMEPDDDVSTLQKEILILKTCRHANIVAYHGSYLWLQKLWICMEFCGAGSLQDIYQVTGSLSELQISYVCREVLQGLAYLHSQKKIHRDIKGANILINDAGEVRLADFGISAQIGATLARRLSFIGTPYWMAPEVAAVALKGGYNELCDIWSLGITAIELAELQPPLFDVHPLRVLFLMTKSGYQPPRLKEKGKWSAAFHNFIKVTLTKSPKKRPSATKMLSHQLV

CC(C)n1cnc2cc(-c3ccc4c(c3)N([C@H]3C[C@@H](N5CCCCC5)C3)C(=O)C4(C)O)nc(Nc3ccnc(F)c3F)c21 (stereo partly drawn) [Example 101] and CC[C@@H](O)C(=O)N1CCC2(CC1)C(=O)N([C@H]1C[C@@H](N3CCCCC3)C1)c1cc(-c3cc4ncn(C(C)C)c4c(Nc4ccncc4F)n3)ccc12 [Example 114] are within 1.5-fold of each other in IC50: 0.3 nM for the first, 0.4 nM for the second.

First: CC(C)n1cnc2cc(-c3ccc4c(c3)N([C@H]3C[C@@H](N5CCCCC5)C3)C(=O)C43CCN(C(=O)C4(C(C)C)COC4)CC3)nc(Nc3ccncc3F)c21 [Example 137]
Second: CC(C)n1cnc2cc(-c3ccc4c(c3)N([C@H]3C[C@@H](N5CCCCC5)C3)C(=O)C43CCN(C(=O)C4(F)CCC4)CC3)nc(Nc3ccncc3F)c21 [Example 149]
The IC50 of the first is 6.2-fold lower: 0.08 nM for the first, 0.5 nM for the second. The first is the more potent here.

CC(C)n1cnc2cc(-c3ccc4c(c3)N([C@H]3C[C@@H](N5CCC(C)(C)C5)C3)C(=O)C43CCN(C(=O)c4cocn4)CC3)nc(Nc3ccncc3F)c21 [Example 154] and CC[C@H](O)C(=O)N1CCC2(CC1)C(=O)N([C@H]1C[C@@H](N3CCC(C)(C)C3)C1)c1cc(-c3cc4ncn(C(C)C)c4c(Nc4ccncc4F)n3)ccc12 [Example 116] are within 1.5-fold of each other in IC50: 0.3 nM for the first, 0.4 nM for the second.

Compared with CC(C)n1cnc2cc(-c3ccc4c(c3)N([C@H]3C[C@@H](N5CCC(C)(C)C5)C3)C(=O)C43CCN(C(=O)C4(C)COC4)CC3)nc(Nc3ccc(F)nc3F)c21 [Example 165], CC(=O)N1CCC2(CC1)C(=O)N([C@H]1C[C@@H](N3CC4CC4C3)C1)c1cc(-c3cc4ncn(C(C)C)c4c(Nc4ccncc4F)n3)ccc12 (stereo partly drawn) [Example 180] is 22-fold higher in IC50: 0.06 nM for the first, 1.3 nM for the second.

Going from CC(C)n1cnc2cc(-c3ccc4c(c3)N([C@H]3C[C@@H](N5CCCCC5)C3)C(=O)C43CCN(C(=O)C4CC4)CC3)nc(Nc3ccncc3F)c21 [Example 143] to CCC(=O)N1CCC2(CC1)C(=O)N([C@H]1C[C@@H](N3CCCCC3)C1)c1cc(-c3cc4ncn(CC)c4c(Nc4ccncc4F)n3)ccc12 [Example 168], the IC50 rises from 0.3 nM to 2.6 nM (8.7-fold). The first is the more potent here.

Same assay, conditions: recombinant human HPK1 kinase domain 0.15 nM, 10 μM ATP, 1 μM STK S1 peptide; geometric mean of multiple experiments

Going from CC(C)n1cnc2cc(-c3ccc4c(c3)N([C@H]3C[C@@H](N5CCC(C)(C)C5)C3)C(=O)C43CCN(C(=O)C4CCCOC4)CC3)nc(Nc3ccncc3F)c21 (stereo partly drawn) [Example 25] to CC(C)n1cnc2cc(-c3ccc4c(c3)N([C@H]3C[C@@H](N5CC[C@](C)(F)C5)C3)C(=O)C43CCN(C4COC4)CC3)nc(Nc3ccncc3F)c21 [Example 86], the IC50 rises from 0.2 nM to 0.6 nM (3-fold). The first is the more potent here.

Compared with CC(C)n1cnc2cc(-c3ccc4c(c3)N([C@H]3C[C@@H](N5CC(C)(C)C[C@@H]5CO)C3)C(=O)C43CCN(C4COC4)CC3)nc(Nc3ccncc3F)c21 [Example 39], CC(C)n1cnc2cc(-c3ccc4c(c3)N([C@H]3C[C@@H](N5CC[C@@H](C)C5)C3)C(=O)C43CCN(C4COC4)CC3)nc(Nc3ccncc3F)c21 [Example 44] is 1.8-fold higher in IC50: 0.6 nM for the first, 1.1 nM for the second. The first is the more potent here.

Compared with CC(C)n1cnc2cc(-c3ccc4c(c3)N([C@H]3C[C@@H](NCC(C)(C)O)C3)C(=O)C4(C)C)nc(Nc3ccncc3F)c21 [Example 52, 6-(4-((3-fluoropyridin-4-yl)amino)-3-isopropyl-3H-imidazo[4,5-c]pyridin-6-yl)-1-((1s,3s)-3-((2-hydroxy-2-methylpropyl)amino)cyclobutyl)-3,3-dimethylindolin-2-one], CC(C)n1cnc2cc(-c3ccc4c(c3)N([C@H]3C[C@@H](N5C[C@@H](C)[C@@H](C)C5)C3)C(=O)C4(C)C)nc(Nc3ccncc3F)c21 [Example 57] is 4-fold lower in IC50: 1.6 nM for the first, 0.4 nM for the second.

First: CC(C)n1cnc2cc(-c3ccc4c(c3)N([C@H]3C[C@@H](N5CCCCC5)C3)C(=O)[C@]4(C)O)nc(Nc3ccncc3F)c21 [Example 55B, 6-(4-((3-fluoropyridin-4-yl)amino)-3-isopropyl-3H-imidazo[4,5-c]pyridin-6-yl)-3-hydroxy-3-methyl-1-((1s,3s)-3-(piperidin-1-yl)cyclobutyl)indolin-2-one]
Second: CC(=O)N1CCC2(CC1)C(=O)N([C@H]1C[C@@H](N3C[C@@H](C)[C@@H](C)C3)C1)c1cc(-c3cc4ncn(C(C)C)c4c(Nc4ccncc4F)n3)ccc12 [Example 33]
The IC50 of the first is 7.3-fold higher: 2.2 nM for the first, 0.3 nM for the second. The second is the more potent here.
